In patent US7632812B2, “Methods to stimulate insulin production by pancreatic β-cells” (Massachusetts General Hospital, priority 1999, dated 2009):

What was measured:
[1] = tested on: INS-1 cells; assay: Insulin secretion by INS-1 cells into medium over 24 h (Rat Insulin RIA); type: cell-based; conditions: INS-1 cells transfected with pEV control and insulin promoter-reporter construct; 24 h exposure; increasing amounts; FIG. 15
Protocol: (§1) This potential role was examined with the rat INS-1 cell line, which intrinsically expresses Ihh and Dhh proteins (FIGS. 13 and 14). […] Insulin levels were measured with a Rat Insulin RIA Kit (LINCO Research, Inc., St. Louis, Mo.) using the protocol outlined by the manufacturer. […] After 24 hours of incubation, 500 μL aliquots of culture medium were removed and serially diluted for the assay. Culture medium that was not exposed to cells was tested as a negative control for the assay. In some experiments, transfected cells were assessed for insulin secretion rates. In these experiments, after incubation with lipofectamine and DNA, the transfected cells received fresh culture medium and 24-hour insulin secretion rates were assessed. Given that the cells intrinsically express hedgehog, the cells were also treated with cyclopamine in the absence of any transfection. […] Cells were then rinsed in phosphate buffered saline and lysed in 0.1N HCl in 100% ethanol at 4° C. The lysate was incubated overnight at−70° C. The thawed lysate was vortexed and subjected to brief centrifugation at 14,000 rpm. The resulting supernatant was dried under vacuum, resuspended in […] Assay buffer, and serially diluted for insulin measurements with the Rat Insulin RIA Kit.

[2] = tested on: INS-1 cells; assay: Cellular insulin content of INS-1 cells (Rat Insulin RIA of lysate); type: cell-based; conditions: untransfected INS-1 cells, 20 μM, 24 hours; FIG. 16
Protocol: as §1

[3] = tested on: insulin mRNA in INS-1 cells; assay: Northern blot of insulin mRNA levels in INS-1 cells; type: cell-based, rat; conditions: 20 μM, Northern RNA blots, FIG. 17
Protocol: For isolation of total RNA, cells were washed in phosphate buffered saline and lysed with Tri-Reagent (SIGMA, St-Louis, Mo.). Total cellular RNA was prepared according to the manufacturer's protocol. For each sample, 4 μg total RNA was separated by electrophoresis on a denaturing gel consisting of 1× MOPS, 1.2% agarose and 1% formaldehyde. Samples were transferred using standard methods (Ausubel et al., Short Protocols in Molecular Biology, Third Edition, John Wiley and Sons, Inc., 1995.) to nylon membranes (Hybond-N+, Amersham Pharmacia Biotech, Inc., Piscataway, N.J.) and crosslinked with ultraviolet light (UV Stratalinker 1800, Stratagene, La Jolla, Calif.). The membranes were prehybridized in Rapid-Hyb Buffer (Amersham Pharmacia Biotech, Inc.) prior to hybridization for 4 hours at 65° C. with radiolabeled probes. Insulin transcripts were probed with a 231 nucleotide fragment (spanning nucleotides 349 to 580 of the rat insulin I gene, Genbank acc. no. V01242) of rat insulin I cDNA. […] For quantitation, autoradiograms were scanned with a Computing Densitometer (Molecular Dynamics, Sunnyvale, Calif.) and individual band intensities were determined with ImageQuant software (Molecular Dynamics, Sunnyvale, Calif.). […]

[4] = tested on: rat insulin I promoter; assay: Rat insulin I promoter luciferase reporter (-410 INS-luc) in transfected INS-1 cells; type: cell-based; conditions: absence of the Shh expression construct, dose-dependent, FIG. 19
Protocol: To determine whether hedgehog regulation of insulin production occurs at the transcriptional level, INS-1 cells were transiently transfected with 5-6 μg total DNA and 10 μL Lipofectamine according to the manufacturer's instructions (GIBCO BRL Life Technologies, Inc., Gaithersburg, Md.) with increasing concentrations of Shh expression vector pSHH in the presence of a rat insulin I promoter-reporter construct −410 INS-luc. […] The plasmid −410 INS-LUC consists of a fragment of the rat insulin I gene promoter that spans nucleotides −410 to +49 inserted into the pXP2 vector that includes firefly luciferase reporter sequences (Lu, M., et al, 1997, J. Biol. Chem.: 272:28349). […] For luciferase assays, cells were harvested 24 hours after transfection with 1× Reporter Lysis Buffer (Promega, Madison, Wis.). Luciferase assays were conducted with the Luciferase Assay System as outlined by the manufacturer (Promega, Madison, Wis.). Luciferase activities were normalized for extract protein concentrations as determined by the Bio-Rad Protein Assay (Bio-Rad Laboratories, Hercules, Calif.), a modified Bradford assay (Bradford, M., 1976, Anal. Biochem., 72:248).

## CC1=C2C[C@H]3[C@@H](CC=C4C[C@@H](O)CC[C@@]43C)[C@@H]2CC[C@]12O[C@@H]1C[C@H](C)CN[C@H]1[C@H]2C [cyclopamine]
[1]
  effect on insulin secretion: increasingly inhibited insulin secretion
[2]
  reduction in cellular insulin content: 40%
[3]
  levels of insulin mRNA: decrease in the levels of insulin mRNA
[4]
  inhibition of basal insulin promoter activity: up to 90%
